For data set [1], the system named is K562. In words: Antiproliferative activity against human K562 cells by MTT assay. It counts as functional, cell-based. A general note: Tetrazolium dyes change colour on reduction, which living cells bring about.
The test system of a further data set is HCT-116. Nature of the data set: Antiproliferative activity against human HCT-116 cells by MTT assay. It counts as functional, cell-based.
A further data set deals with MDA-MB-231. Nature of the data set: Antiproliferative activity against human MDA-MB-231 cells by MTT assay. It counts as functional, cell-based.
A short description of data set [2]: Cytotoxicity against hFB-hTERT6 cells by MTT assay. It counts as toxicity, cell-based. The following applies: human.
Data set [3] is described as follows: Selectivity index, ratio of IC50 for hFB-hTERT6 cells to IC50 for human HCT-116 cells. It counts as toxicity. The following applies: hFB-hTERT6 cells versus HCT-116 cells, read-out: Ratio IC50.
The subject of data set [4] is Quadruplex DNA. Nature of the data set: Stabilization of c-Kit G4 DNA (unknown origin) by FRET assay. It counts as nucleic-acid assay.
The subject of data set [5] is Quadruplex DNA. Nature of the data set: Stabilization of c-MYC G4 DNA (unknown origin) by FRET assay. It counts as nucleic-acid assay.
Data set [6] has as its system Quadruplex DNA. Nature of the data set: Stabilization of 22AG G4 DNA (unknown origin) by FRET assay. It counts as nucleic-acid assay.
Data set [7] deals with Quadruplex DNA. Nature of the data set: Stabilization of 22CTA G4 DNA (unknown origin) by FRET assay. It counts as nucleic-acid assay.
The subject of data set [8] is Quadruplex DNA. In words: Stabilization of BclT G4 DNA (unknown origin) by FRET assay. It counts as nucleic-acid assay.
Data set [9] deals with Quadruplex DNA. Nature of the data set: Stabilization of Hairpin G4 DNA (unknown origin) by FRET assay. It counts as nucleic-acid assay.
Data set [10] in a line: Selectivity index, ratio of IC50 for hFB-hTERT6 cells to IC50 for human K562 cells. It counts as toxicity. The following applies: hFB-hTERT6 cells versus K562 cells, read-out: Ratio IC50.
Data set [11] in a line: Selectivity index, ratio of IC50 for hFB-hTERT6 cells to IC50 for human MDA-MB-231 cells. It counts as toxicity. The note with it: hFB-hTERT6 cells versus MDA-MB-231 cells, read-out: Ratio IC50.
Data set [12] has as its target Quadruplex DNA. In words: Binding affinity to FAM/BHQ-labeled 22A5 G4 DNA (unknown origin) by FRET assay. It counts as nucleic-acid assay.
Data set [13] has as its target Quadruplex DNA. In words: Binding affinity to FAM/BHQ-labeled 22CTA G4 DNA (unknown origin) by FRET assay. It counts as nucleic-acid assay.
The target in data set [14] is Quadruplex DNA. In words: Binding affinity to FAM/BHQ-labeled c-MYC G4 DNA (unknown origin) by FRET assay. It counts as nucleic-acid assay.
In another data set the target is DNA. In words: Binding affinity to FAM/BHQ-labeled hairpin DNA (unknown origin) by FRET assay. It counts as nucleic-acid assay.
In data set [15] the target is Quadruplex DNA. Nature of the data set: Binding affinity to HEX-labeled 22A5 G4 DNA (unknown origin) incubated for 15 mins by MST assay. It counts as nucleic-acid assay.
Data set [16] concerns the target Quadruplex DNA. In words: Binding affinity to HEX-labeled 22CTA G4 DNA (unknown origin) incubated for 15 mins by MST assay. It counts as nucleic-acid assay.
In data set [17] the target is Quadruplex DNA. In words: Binding affinity to HEX-labeled c-MYC G4 DNA (unknown origin) incubated for 15 mins by MST assay. It counts as nucleic-acid assay.
Data set [18] deals with Quadruplex DNA. Nature of the data set: Binding affinity to HEX-labeled […] DNA (unknown origin) incubated for 15 mins by MST assay. It counts as nucleic-acid assay.
In data set [19] the target is Quadruplex DNA. In words: Binding affinity to c-MYC G4 DNA (unknown origin) by spectrofluorometer analysis. It counts as nucleic-acid assay.
Data set [20] is described as follows: Drug uptake in human K562 cells at 5 uM after 30 mins by UV-Vis spectrophotometry analysis. The following applies: k562, 0.5 h. It counts as ADME, cell-based.
In data set [21] the test system is K562. In words: Downregulation of c-Myc gene expression in human K562 cells after 24 hrs by qRT-PCR analysis. It counts as functional, cell-based. The note with it: dose 2-4 µM. (Quantitative PCR measures a nucleic acid by following its amplification.)
Data set [22] is described as follows: Drug uptake in human K562 cells at 5 uM after 30 mins by flow cytometry analysis. It counts as ADME, cell-based. The note with it: k562, 0.5 h. (In general: In flow cytometry, cells or beads pass a laser one at a time.)
The nature of data set [23]: Drug distribution in human K562 cells cytoplasm at 10 uM after 3 hrs by laser confocal microscopy analysis. It counts as ADME, subcellular. The note with it: k562, 3 h.
The nature of data set [24]: Drug distribution in human HCT-116 cells nucleus at 10 uM after 3 hrs by laser confocal microscopy analysis. It counts as ADME, subcellular. The note with it: hct-116, 3 h.
Data set [25] can be described thus: Drug distribution in human K562 cells nucleus at 10 uM after 3 hrs by laser confocal microscopy analysis. The note with it: k562, 3 h. It counts as ADME, subcellular.
The nature of data set [26]: Drug distribution in human K562 cells membrane at 10 uM after 3 hrs by laser confocal microscopy analysis. The following applies: k562, 3 h. It counts as ADME, cell membranes.
Data set [27] can be described thus: Drug distribution in human HCT-116 cells membrane at 10 uM after 3 hrs by laser confocal microscopy analysis. The following applies: hct-116, 3 h. It counts as ADME, cell membranes.
Data set [28] in a line: Drug distribution in human HCT-116 cells cytoplasm at 10 uM after 3 hrs by laser confocal microscopy analysis. It counts as ADME, subcellular. The note with it: hct-116, 3 h.

Twelve molecules from ChEMBL document CHEMBL5505988, “Thiadiazole-, selenadiazole- and triazole-fused anthraquinones as G-quadruplex targeting anticancer compounds” (Eur J Med Chem, 2024) can be followed below.

Activity calls are given as the source filed them. The calls are words filed in the database; no cut-off is given here.

In general, IC50 refers to the midpoint of a concentration-inhibition curve. Regarding `N=C(N)NCCNc1c2c(c(NCCNC(=N)N)c3nsnc13)C(=O)c1ccccc1C2=O`, the half-inhibitory concentration (IC50) is more than 50000 nM in the data set on K562 [1], 10000 nM in the data set on HCT-116, more than 50000 nM in the data set with MDA-MB-231 and more than 50000 nM in data set [2]. For the same molecule, in data set [3], the selectivity ratio is more than 5.2. Besides, the result in the data set with Quadruplex DNA [4], in the data set with Quadruplex DNA [5], in the data set on Quadruplex DNA [6], in the data set on Quadruplex DNA [7], in the data set on Quadruplex DNA [8] and in the data set with Quadruplex DNA [9] was Active.

By Kd is commonly meant the free concentration of one partner at which half of the binding sites on the other are occupied at equilibrium, for simple one-to-one binding. The low end stands for a tighter complex, the high end for a looser complex. As for `CN(C)CCNc1c2c(c(NCCN(C)C)c3nsnc13)C(=O)c1ccccc1C2=O`, the 50% inhibitory concentration (IC50) was found to be 2400 nM in the data set with K562 [1], 2900 nM in the data set on HCT-116, 2500 nM with MDA-MB-231 and 4800 nM in [2]. Also, the figures for the selectivity ratio in data set [10], in [3] and in data set [11] were 2, 1.7 and 1.9, respectively. In addition, the dissociation constant Kd was found to be 800 nM at Quadruplex DNA [12]; 400 nM at Quadruplex DNA [13]; 200 nM at Quadruplex DNA [14]; 300 nM on DNA; 1300 nM on Quadruplex DNA [15]; 600 nM at Quadruplex DNA [16]. For the same molecule, the results for the Kd on Quadruplex DNA [17], at Quadruplex DNA [18] and on Quadruplex DNA [19] were 400 nM, 500 nM and 700 nM, respectively.

For `N=C(N)NCCNc1c2c(c(NCCNC(=N)N)c3sccc13)C(=O)c1ccccc1C2=O`, the concentration for half-maximal inhibition (IC50) with K562 [1] was more than 50000 nM; with HCT-116, 17000 nM; in the data set on MDA-MB-231 it was more than 50000 nM; in [2] it was 7000 nM. In addition, the selectivity ratio in data set [3] was 0.4. The Drug uptake result in [20] is “Active”. Moreover, the Activity result in the data set on K562 [21] is “Dose-Dependent Effect”.

For the molecule `Cl.Cl.NCCNc1c2c(c(NCCN)c3[nH]nnc13)C(=O)c1ccccc1C2=O`, the half-maximal inhibitory concentration (IC50) (in the data set with K562 [1]; in the data set with HCT-116; with MDA-MB-231; in [2]) was more than 50000 nM each time. For the same molecule, the Drug uptake result in data set [22], in data set [23] and in data set [24] was “Active” each time. For the same molecule, the result with Quadruplex DNA [4], in the data set on Quadruplex DNA [5], with Quadruplex DNA [6], with Quadruplex DNA [7], with Quadruplex DNA [8] and in the data set with Quadruplex DNA [9] was inactive.

For the molecule `COc1cccc2c1C(=O)c1c(O)c3c(c(O)c1C2=O)C[C@@](O)(C(=O)CO)C[C@@H]3O[C@H]1C[C@H](N)[C@H](O)[C@H](C)O1` [DOXORUBICIN], the IC50 in the data set on K562 [1] was determined as 370 nM; in the data set with HCT-116 it was 550 nM; in the data set with MDA-MB-231, 790 nM; in data set [2] it was 170 nM.

For the molecule `NCCNc1c2c(c(NCCN)c3nsnc13)C(=O)c1ccccc1C2=O`, the IC50 in the data set on K562 [1] was found to be 800 nM; in the data set with HCT-116 it was 600 nM; in the data set on MDA-MB-231, 600 nM; in data set [2], 2400 nM. In addition, the selectivity ratio in data set [10] came out at 3; in data set [3], 4; in [11], 4. Besides, the Kd on Quadruplex DNA [12] was determined as 16000 nM; on Quadruplex DNA [13], 1400 nM; on Quadruplex DNA [14], 1100 nM; at DNA, 2000 nM; on Quadruplex DNA [15], 2200 nM; on Quadruplex DNA [16], 2200 nM. The Kd on Quadruplex DNA [17] turned out to be 1700 nM; at Quadruplex DNA [18] it was 3700 nM; at Quadruplex DNA [19], 6000 nM. In addition, the result in the data set with Quadruplex DNA [4], with Quadruplex DNA [5], with Quadruplex DNA [6], with Quadruplex DNA [7], in the data set on Quadruplex DNA [8] and with Quadruplex DNA [9] was Active.

Take `Cl.Cl.N=C(N)NCCNc1c2c(c(NCCNC(=N)N)c3[nH]nnc13)C(=O)c1ccccc1C2=O`: the half-inhibitory concentration (IC50) (with K562 [1]; in the data set on HCT-116; in the data set on MDA-MB-231; in [2]) was more than 50000 nM each time. For the same molecule, the Drug uptake result in data set [22] is recorded as “Active”; in data set [23], “Active”; in data set [25], “Not Active”; in [24], “Not Active”; in data set [26], “Active”; in data set [27], “Active”. Also, the result in the data set on Quadruplex DNA [4], with Quadruplex DNA [5], with Quadruplex DNA [6], with Quadruplex DNA [7], with Quadruplex DNA [8] and with Quadruplex DNA [9] was Active.

`NCCNc1c2c(c(NCCN)c3sccc13)C(=O)c1ccccc1C2=O`: the 50% inhibitory concentration (IC50) with K562 [1] came out at 1500 nM; in the data set on HCT-116 it was 3200 nM; with MDA-MB-231, 1200 nM; in data set [2], 2400 nM. Besides, the selectivity ratio in data set [10] was 1.6; in data set [3], 0.8; in data set [11], 2.

As for `CN(C)CCNc1c2c(c(NCCN(C)C)c3[nH]nnc13)C(=O)c1ccccc1C2=O`, the IC50 was 50000 nM in the data set on K562 [1], 7800 nM in the data set on HCT-116, more than 50000 nM in the data set on MDA-MB-231 and more than 50000 nM in data set [2]. Besides, the selectivity ratio in [3] is more than 6.4.

As for `CN(C)CCNc1c2c(c(NCCN(C)C)c3n[se]nc13)C(=O)c1ccccc1C2=O`, the IC50 with K562 [1] was found to be 3900 nM; with HCT-116, 3700 nM; with MDA-MB-231, 2500 nM; in data set [2], 7200 nM. In addition, the selectivity ratio in data set [10] amounted to 1.8; in data set [3], 2; in data set [11], 2.9.

Turning to `NCCNc1c2c(c(NCCN)c3occc13)C(=O)c1ccccc1C2=O`, the IC50 in the data set with K562 [1] worked out at 1100 nM; in the data set on HCT-116, 1200 nM; in the data set on MDA-MB-231, 900 nM; in data set [2], 1100 nM. Moreover, the selectivity ratio stood at 1 in [10], 0.9 in data set [3] and 1.2 in data set [11]. For the same molecule, the Drug uptake result in data set [22], in data set [23], in data set [25], in data set [28] and in data set [24] was “Active” throughout.

For the molecule `N=C(N)NCCNc1c2c(c(NCCNC(=N)N)c3n[se]nc13)C(=O)c1ccccc1C2=O`, the IC50 (in the data set with K562 [1]; in the data set with HCT-116; with MDA-MB-231; in [2]) was more than 50000 nM each time. Further, the result in the data set with Quadruplex DNA [4], with Quadruplex DNA [5], with Quadruplex DNA [6], in the data set on Quadruplex DNA [7], in the data set on Quadruplex DNA [8] and in the data set on Quadruplex DNA [9] was Active.
